According to US20240216383A1, “FORMULATIONS AND METHODS FOR TREATING ERECTILE DYSFUNCTION” (Strategic Drug Solutions, Inc., priority 2020, published 2024):
In brackets after ≈: the same amount, converted by molar mass. Structures can show the parent of a compound that is named as a salt. Where two headings read alike, the source gives them in different places.

Columns and labels:
[1] = cited from earlier work; for half-life: oral, terminal half-life
[2] = cited from earlier work
[3] = cited from earlier work; remark: listed apart in the source
[4] = Saturated solubility of sildenafil in water and organic-aqueous solvents (shake flask, HPLC); assay type: physicochemical; details: for solubility: water, thermodynamic from solid
Excerpt: Afterwards the solution was filtered using the VWR 0.2 mcron filter.

[5] = Vardenafil permeability (Papp) and flux (Jss) by PAMPA; assay type: in vitro ADME
Excerpt: As disclosed herein, the permeability of vardenafil API in different solvents at room temperature and atmospheric pressure was screened using in vitro PAMPA. The PAMPA predicts passive absorption of drugs and is suitable for studies with many solutions including ethanol (up to concentration of 30%)(22-24). The unit of measurement is the apparent permeability (Papp) obtained at steady state, expressed as cm/second. Also another associated measurement is the maximum flux (Jss) at a particular pH, expressed as the quantity of drug across the unit area per sec, is calculated from the Papp and saturated solubility. […]
Apparent permeability coefficient (Papp) determination, expressed as cm/sec, was calculated based on the following equation at steady state (24) where • VD=volume in donor chamber • VA=volume in acceptor chamber • A=effective area of the membrane (PAMPA: 0.3 cm^2) • t=duration of the permeability study • CA=drug concentration in the acceptor well at the end of the study • CE=equilibrium concentration in both wells, and […]
Steady state flux (Jss). The Jss, expressed as ug/sec/cm^2, was calculated based on the following equation where • CD=loading concentration in the donor chamber […]

[6] = Saturated solubility of vardenafil API in water and organic-aqueous solvents (shake flask, HPLC); assay type: physicochemical; details: for solubility: water, pH 4, aqueous buffer, thermodynamic from solid, pH4
Experimental: For screening of various organic solvents, the solubility of vardenafil API in different % ethanol-aqueous mixtures was first investigated and compared to solubility in pure water. As disclosed herein, the solutions were prepared by the “shake flask” method. Briefly, increasing amounts of vardenafil API were added to different mixtures until saturation. The saturated organic-aqueous mixtures were adjusted for pH (at the range pH 3.5-7.5) with the use of a pH meter. The saturated solution was shaken slowly with a magnetic stirrer at room temperature or shaken rapidly several times a day for 24 hours or longer, up to 3 days. Afterwards, the solutions were filtered using the VWR 0.2 micron filter. The filtrate was then used for inspection of clarity and concentration was determined by HPLC. In addition, the saturated solubility of vardenafil various organic-aqueous solution, e.g., in glycerin (glycerol), polyethylene glycol 400 (PEG) and combination of two organic solvents were investigated. Vardenafil solubility in some other representative organic-aqueous solutions were also investigated.
The standard curves were prepared in MeOH and mixed with PBS so that the analytical matrices were the same.

CCCc1nc(C)c2c(=O)[nH]c(-c3cc(S(=O)(=O)N4CCNCC4)ccc3OCC)nn12 [MI metabolite]
share of total pharmacologic activity ([1]; metabolite of vardenafil): about 7%

CCCc1nn(C)c2c(=O)[nH]c(-c3cc(S(=O)(=O)N4CCN(C)CC4)ccc3OCC)nc12 [sildenafil]
absolute bioavailability ([1]; oral administration): about 41%
mean time (Tmax) for maximum plasma concentration ([1]; oral administration): about 60 min
half-life [1]: about 4 h
log P [2]: 2.7
pKa ([2]; vardenafil: 7.15 mostly basic, 9.86 mostly acidic): 7.2
solubility in water ([3]; pH 3-4): about 7.0 mg/ml
solubility in water ([3]; pH 5): ~2100 µg/mL (≈ 4.42 mM)
solubility in water ([3]; pH 7): ~30 µg/mL (≈ 0.0632 mM)
aqueous solubility ([4]; sildenafil, pHmax 4.2): 3540 µg/mL (≈ 7.46 mM)
solubility ([4]; pH 4, aqueous buffer, read-out: aqueous saturated solubility): < 5000 µg/mL
solubility ([4]; pH 4.55, aqueous buffer, read-out: aqueous solubility): 3340 µg/mL (≈ 7.04 mM)

CCCc1nc(C)c2c(=O)[nH]c(-c3cc(S(=O)(=O)N4CCN(CC)CC4)ccc3OCC)nn12 [vardenafil]
JsspHmax ([5]; vardenafil aqueous, pH4): 7.74 E-05 ug/s/cm^2
Jss(ref) ([5]; vardenafil, Solmin 20 mg/ml, IN dose 2 mg/nostril, pHmax pH4): 8.5E-05 ug/s/cm^2
absolute bioavailability ([1]; oral administration): about 15%
mean time (Tmax) for maximum plasma concentration ([1]; oral administration): about 60 min
solubility ([6]; read-out: V(ssol)pHmax, aqueous saturated solubility at pHmax): 18200 µg/mL
log P [2]: 3.64
solubility ([3]; pH 1): about 8.8 g/L
solubility ([3]; pH 2): ~3000 µg/mL (≈ 6.14 mM)
solubility ([3]; pH 3): ~1600 µg/mL (≈ 3.27 mM)
aqueous solubility ([3]; pH 4-7): less than 2 mg/ml
solubility ([3]; pH 4): ~880 µg/mL (≈ 1.8 mM)
solubility ([3]; pH 5): ~160 µg/mL (≈ 0.327 mM)
solubility ([3]; pH 6): ~19 µg/mL (≈ 0.0389 mM)

CN1CC(=O)N2[C@H](c3ccc4c(c3)OCO4)c3[nH]c4ccccc4c3C[C@@H]2C1=O [tadalafil]
mean time (Tmax) for maximum plasma concentration ([1]; following a single dose): about 2 h
absolute bioavailability ([1]; oral administration): ≤ 80%
half-life [1]: about 17.5 h

CCCc1nc(C)c2c(=O)[nH]c(-c3cc(S(=O)(=O)N4CCN(CC)CC4)ccc3OCC)nn12 [vardenafil API, vardenafil hydrochloride trihydrate]
time until precipitation ([6]; solubilized in 12% alcohol): ≤ 24 h
solubility ([6]; read-out: mean saturated solubility in water): < 20000 µg/mL
